Data taken from US20200215036A1, “BENZIMIDAZOLE COMPOUNDS AS KINASE INHIBITORS” (GB005, Inc., priority 2017, published 2020).

Assays:
BTK = BTK (Homo sapiens, UniProt Q06187); test: Biochemical kinase assay (Nanosyn, micro-fluidic detection), BTK; conditions: 12 concentrations, 3 hours incubation, 1 uM peptide substrate
Procedure: (§1) The in vitro kinase assays were performed at Nanosyn (Santa Clara, Calif.) utilizing micro-fluidic detection Technology. The test compounds were serially pre-diluted in DMSO and added, by the acoustic dispensing (Labcyte® 550), directly to 384we11 assay plates into 10 uL of a buffer with enzyme comprising: 100 mM HEPES, pH7.5, 5 mM MgCl2, 0.1% bovine serum albumin, 1 mM DTT, 0.01% Triton X-100 and the enzyme. Final DMSO concentration was maintained at 1% in all samples, including the controls. The reactions were initiated by addition of ATP (to the specified concentration) and the fluorescently labeled peptide substrate to a final concentration of 1 uM, and incubated for 3 hours at […]. Following incubation, the reactions were quenched by addition of 40 μL of termination buffer (100 mM HEPES, pH7.5, 0.01% Triton X-100, 50 mM EDTA). Terminated plates were analyzed using Caliper LabChip® 3000 microfluidic electrophoresis instrument (Caliper Life Sciences/Perkin Elmer). The enzymatic modification of the peptide substrate (phosphorylation) results in a change of net charge enabling electrophoretic separation of product from substrate. As substrate and product are separated by electrophoresis, two peaks of fluorescence are observed. Change in the relative fluorescence intensity of the substrate and product peaks was the parameter measured, reflecting enzyme activity. In the presence of inhibitor, the ratio between product and substrate is altered: signal of the product decreases, while the signal of the substrate increases. Activity in each test sample was determined as the product to sum ratio (PSR): P/(S+P), where P is the peak height of the product and S is the peak height of the FAM-cAMP substrate. For each compound, enzyme activity was measured at 12 concentrations spaced by 3× dilution intervals. Negative control samples (0%−inhibition in the absence of inhibitor, DMSO only) and positive control samples (100%−inhibition, in the absence of enzyme or in the presence of control inhibitor) were assembled in replicates of four and were used to calculate %−inhibition values in the presence of compounds. Percent inhibition (Pinh) was determined using the following equation: Pinh=(PSR0%−PSRinh)/(PSR0%−PSR100%)*100, where PSRinh is the product sum ratio in the presence of inhibitor, PSR0% is the product sum ratio in the absence of inhibitor and PSR100% is the product sum ratio in 100%-inhibition control samples. To determine IC50 values, the inhibition curves (Pinh versus inhibitor concentration) were fitted by 4 parameter sigmoid dose-response model using XLfit software (IDBS).

ITK = target: T1, ITK (Homo sapiens, UniProt Q08881); test: Biochemical kinase assay (Nanosyn, micro-fluidic detection), ITK; conditions: 12 concentrations, 3 hours incubation, 1 uM peptide substrate
T1 sequence (Q08881 1-620): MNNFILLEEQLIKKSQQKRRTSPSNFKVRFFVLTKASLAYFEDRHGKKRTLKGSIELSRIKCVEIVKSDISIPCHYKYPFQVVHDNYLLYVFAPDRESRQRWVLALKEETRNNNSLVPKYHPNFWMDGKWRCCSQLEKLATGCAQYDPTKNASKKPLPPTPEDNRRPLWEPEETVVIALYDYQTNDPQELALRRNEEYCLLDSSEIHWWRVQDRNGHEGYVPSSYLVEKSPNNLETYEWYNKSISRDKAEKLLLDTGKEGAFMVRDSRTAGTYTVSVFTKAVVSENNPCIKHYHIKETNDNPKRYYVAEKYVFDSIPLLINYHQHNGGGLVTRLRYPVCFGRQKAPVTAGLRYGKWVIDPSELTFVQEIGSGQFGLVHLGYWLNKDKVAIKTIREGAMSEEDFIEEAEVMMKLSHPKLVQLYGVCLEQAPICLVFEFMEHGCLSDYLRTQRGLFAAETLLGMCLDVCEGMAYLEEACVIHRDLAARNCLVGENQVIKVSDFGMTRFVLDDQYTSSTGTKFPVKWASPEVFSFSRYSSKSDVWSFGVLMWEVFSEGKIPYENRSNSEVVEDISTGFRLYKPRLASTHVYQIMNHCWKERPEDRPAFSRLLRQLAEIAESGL
Procedure: as §1

TXK = target: T2, TXK (Homo sapiens, UniProt P42681); test: Biochemical kinase assay (Nanosyn, micro-fluidic detection), TXK; conditions: for IC50: 12 concentrations, 3 hours incubation, 1 uM peptide substrate; for ITK/TXK Ratio: ratio of ITK IC50 to TXK IC50
T2 sequence (P42681 1-527): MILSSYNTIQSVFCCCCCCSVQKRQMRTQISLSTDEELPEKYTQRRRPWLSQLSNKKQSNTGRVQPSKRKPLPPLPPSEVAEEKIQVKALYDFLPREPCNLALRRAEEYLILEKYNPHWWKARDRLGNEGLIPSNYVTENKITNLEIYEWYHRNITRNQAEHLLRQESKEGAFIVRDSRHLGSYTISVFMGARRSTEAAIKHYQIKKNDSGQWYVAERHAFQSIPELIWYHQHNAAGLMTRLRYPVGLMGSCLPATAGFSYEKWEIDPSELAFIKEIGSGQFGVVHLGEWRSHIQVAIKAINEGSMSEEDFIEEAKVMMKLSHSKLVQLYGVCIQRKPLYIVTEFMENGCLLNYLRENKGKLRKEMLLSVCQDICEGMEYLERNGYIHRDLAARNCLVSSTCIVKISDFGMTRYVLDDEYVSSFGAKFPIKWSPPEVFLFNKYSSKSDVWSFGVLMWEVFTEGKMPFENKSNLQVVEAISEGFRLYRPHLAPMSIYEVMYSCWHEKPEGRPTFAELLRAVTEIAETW
Procedure: as §1

TEC = target: T3, TEC (Homo sapiens, UniProt P42680); test: Biochemical kinase assay (Nanosyn, micro-fluidic detection), TEC; conditions: 12 concentrations, 3 hours incubation, 1 uM peptide substrate
T3 sequence (P42680 1-631): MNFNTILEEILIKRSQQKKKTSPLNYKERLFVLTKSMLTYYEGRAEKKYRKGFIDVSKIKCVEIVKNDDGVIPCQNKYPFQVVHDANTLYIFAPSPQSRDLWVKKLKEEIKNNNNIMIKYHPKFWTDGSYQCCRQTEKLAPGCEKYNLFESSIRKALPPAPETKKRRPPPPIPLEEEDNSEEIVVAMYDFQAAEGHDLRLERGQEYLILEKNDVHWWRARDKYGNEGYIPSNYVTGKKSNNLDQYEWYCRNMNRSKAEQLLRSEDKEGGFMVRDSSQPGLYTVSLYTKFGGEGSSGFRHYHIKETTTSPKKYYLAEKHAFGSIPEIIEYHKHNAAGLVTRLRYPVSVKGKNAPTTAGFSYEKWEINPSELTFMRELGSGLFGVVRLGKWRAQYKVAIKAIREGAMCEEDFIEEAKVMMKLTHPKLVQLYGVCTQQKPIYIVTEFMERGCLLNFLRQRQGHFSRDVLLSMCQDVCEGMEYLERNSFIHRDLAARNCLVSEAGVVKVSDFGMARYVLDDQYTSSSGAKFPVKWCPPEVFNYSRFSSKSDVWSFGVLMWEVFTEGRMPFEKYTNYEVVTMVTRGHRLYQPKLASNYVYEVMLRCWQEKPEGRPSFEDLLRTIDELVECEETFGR
Procedure: as §1

Sequence of BTK (Q06187 whole entry): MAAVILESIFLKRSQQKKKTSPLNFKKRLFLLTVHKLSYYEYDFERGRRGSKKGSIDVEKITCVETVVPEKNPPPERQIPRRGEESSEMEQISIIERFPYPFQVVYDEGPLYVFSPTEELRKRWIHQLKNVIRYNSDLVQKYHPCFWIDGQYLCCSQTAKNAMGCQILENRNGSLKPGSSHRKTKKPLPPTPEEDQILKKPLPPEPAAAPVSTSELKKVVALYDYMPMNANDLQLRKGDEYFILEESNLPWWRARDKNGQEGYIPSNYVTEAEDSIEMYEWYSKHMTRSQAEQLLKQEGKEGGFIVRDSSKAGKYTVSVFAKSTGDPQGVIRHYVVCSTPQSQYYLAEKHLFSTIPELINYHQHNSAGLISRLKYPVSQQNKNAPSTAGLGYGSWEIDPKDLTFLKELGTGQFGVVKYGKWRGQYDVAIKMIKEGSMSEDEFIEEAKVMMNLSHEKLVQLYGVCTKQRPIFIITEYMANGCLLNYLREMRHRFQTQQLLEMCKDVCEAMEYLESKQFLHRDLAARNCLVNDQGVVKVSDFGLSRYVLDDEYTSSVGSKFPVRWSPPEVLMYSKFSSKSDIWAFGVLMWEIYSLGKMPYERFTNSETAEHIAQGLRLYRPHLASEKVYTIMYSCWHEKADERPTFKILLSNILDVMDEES

Question: With C=CC(=O)N1CC[C@]2(C1)C[C@H](n1c(NC(=O)c3cc(C)no3)nc3cc(CN4CCCC4)ccc31)C2 [Compound 1] as the compound, how does the IC50 (BTK) read?
Answer: 16.1 nM

Question: And the IC50 (ITK)?
Answer: 127 nM

Question: What about the IC50 (TXK) of the same compound?
Answer: 5.28 nM

Question: And the “ITK/TXK Ratio” value (TXK)?
Answer: 24.1

Question: What about the IC50 (TEC) of the same compound?
Answer: 95.5 nM

Question: Which results are given for C=CC(=O)N1CC[C@]2(C1)C[C@H](n1c(NC(=O)c3cc(C)no3)nc3cc(CN4CCOCC4)ccc31)C2 [Compound 2]?
Answer: IC50 (BTK): 14.7 nM; IC50 (ITK): 40.9 nM; IC50 (TXK): 3.02 nM; ITK/TXK Ratio (TXK): 13.5; IC50 (TEC): 11.1 nM

Question: For C=CC(=O)N1CC[C@]2(C1)C[C@H](n1c(NC(=O)c3cc(C)no3)nc3cc(CN4CCN(C)CC4)ccc31)C2 [Compound 3], which IC50 (BTK) is on record?
Answer: 17.9 nM

Question: What about the IC50 (ITK) of the same compound?
Answer: 80.9 nM

Question: What about the IC50 (TXK) of the same compound?
Answer: 3.48 nM

Question: What about the “ITK/TXK Ratio” value (TXK) of the same compound?
Answer: 23.2

Question: And the IC50 (TEC)?
Answer: 43.9 nM

Question: Which IC50 (BTK) does the source give for C=CC(=O)N1CC[C@]2(C1)C[C@H](n1c(NC(=O)c3cc(C(C)C)no3)nc3cc(CN4CCCC4)ccc31)C2 [Compound 4] here?
Answer: 12 nM

Question: What about the IC50 (ITK) of the same compound?
Answer: 553 nM

Question: What about the IC50 (TXK) of the same compound?
Answer: 1.42 nM

Question: What about the “ITK/TXK Ratio” value (TXK) of the same compound?
Answer: 390

Question: What about the IC50 (TEC) of the same compound?
Answer: 96.3 nM

Question: With C=CC(=O)N1CC[C@]2(C1)C[C@H](n1c(NC(=O)c3cc(C4CCC4)no3)nc3cc(CN4CCCC4)ccc31)C2 [Compound 5] as the compound, how does the IC50 (BTK) read?
Answer: 7.65 nM

Question: What about the IC50 (ITK) of the same compound?
Answer: 576 nM

Question: What about the IC50 (TXK) of the same compound?
Answer: 1.25 nM

Question: And the “ITK/TXK Ratio” value (TXK)?
Answer: 461

Question: What about the IC50 (TEC) of the same compound?
Answer: 50.5 nM

Question: What does the source list for C=CC(=O)N1CC[C@]2(C1)C[C@H](n1c(NC(=O)c3cc(C4CCCCC4)no3)nc3cc(CN4CCCC4)ccc31)C2 [Compound 6]?
Answer: IC50 (BTK): 10.1 nM; IC50 (ITK): > 1000 nM; IC50 (TXK): 1.78 nM; ITK/TXK Ratio (TXK): >561; IC50 (TEC): 105 nM

Question: How did the IC50 (BTK) turn out when C=CC(=O)N1CC[C@]2(C1)C[C@H](n1c(NC(=O)c3cc(C(C)(C)C)no3)nc3cc(CN4CCCC4)ccc31)C2 [Compound 7] was run?
Answer: 59.7 nM

Question: What about the IC50 (ITK) of the same compound?
Answer: 536 nM

Question: What about the IC50 (TXK) of the same compound?
Answer: 5.04 nM

Question: And the IC50 (TEC)?
Answer: 529 nM

Question: For C=CC(=O)N1CC[C@]2(C1)C[C@H](n1c(NC(=O)c3cc(-c4ccccc4)no3)nc3cc(CN4CCCC4)ccc31)C2 [Compound 8], which IC50 (BTK) is on record?
Answer: 25.7 nM

Question: And the IC50 (ITK)?
Answer: 369 nM

Question: And the IC50 (TXK)?
Answer: 1.97 nM

Question: What about the “ITK/TXK Ratio” value (TXK) of the same compound?
Answer: 187

Question: And the IC50 (TEC)?
Answer: 136 nM
